pEC50: −log10 of the molar value. Read-outs that look alike come from different tables or passages of the source.
Key:
[1] = tested on: aCD3/aCD28-stimulated human PBMCs; assay: Cytokine production in aCD3/aCD28 stimulated human PBMCs; type: cell-based; conditions: PBMC, 18 h
Procedure, shortened: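 Compound effects measured in buffy-coat PBMCs activated 18 h at 37° C by 1 μg/mL each of soluble anti-CD3 (OKT3) and anti-CD28 (28.2), 1e6 cells/mL. Cytokines in harvested supernatants read by MSD or HTRF.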

[2] = tested on: aCD3/aCD28-stimulated human CD4+-T-cells; assay: IL-2 production and activation markers in aCD3/aCD28 stimulated isolated human CD4+-T-cells; type: cell-based; conditions: IL-2 production at 3 μM compound
Procedure, shortened: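 CD4+ T cells isolated from buffy-coat PBMCs by microbeads were plated in Xvivo medium (1.5*10^5 cells/well) and stimulated with anti-CD3/28 mAbs plus compound. IL-2 measured by ELISA in supernatants at 24 h or 48 h; CD25 and proliferation by flow cytometry, CD69 at 24 h. Activity classes based on IL-2 at 3 μM compound.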

[3] = enhancement of IFN-γ production, read-out: Activity Class IFN-γ
[4] = enhancement of IL-2 production, read-out: Activity Class IL-2

SMILES | pEC50 [1, 3] | pEC50 [1, 4] | Activity Class CD4+ [2]
CC(C)NC(=O)c1ccc2c(c1)N(Cc1ccc(Cl)c(Cl)c1)C(=O)[C@@H](N)CS2(=O)=O.Cl [Example 88, (3R)-3-amino-5-[(3,4-dichlorophenyl)methyl]-1,1,4-trioxo-N-(propan-2-yl)-2,3,4,5-tetrahydro-1λ^6,5-benzothiazepine-7-carboxamide hydrochloride] | 5.30 to 5.80 | < 5.30 | C (IL-2 production at 3 μM compound concentration between 2-fold increase as compared to mean IL-2 production of stimulated cells in the absence of compounds and <2 ng/mL)
CC(C)NC(=O)c1ccc2c(c1)N(Cc1ccc(Cl)c(F)c1)C(=O)[C@@H](N)CS2(=O)=O.Cl [Example 89, (3R)-3-amino-5-[(4-chloro-3-fluorophenyl)methyl]-1,1,4-trioxo-N-(propan-2-yl)-2,3,4,5-tetrahydro-1λ^6,5-benzothiazepine-7-carboxamide hydrochloride] | 5.30 to 5.80 | < 5.30 | C (IL-2 production at 3 μM compound concentration between 2-fold increase as compared to mean IL-2 production of stimulated cells in the absence of compounds and <2 ng/mL)
Cl.N[C@H]1CS(=O)(=O)c2cc(F)c(C(=O)NCC(F)(F)F)cc2N(Cc2ccc(Cl)cc2)C1=O [Example 92, (3R)-3-amino-5-[(4-chlorophenyl)methyl]-8-fluoro-1,1,4-trioxo-N-(2,2,2-trifluoro-ethyl)-2,3,4,5-tetrahydro-1λ^6,5-benzothiazepine-7-carboxamide hydrochloride] | 5.30 to 5.80 | 5.30 to 5.80 | B (IL-2 production at 3 μM compound concentration between 2-10 ng/mL)
Cl.N[C@H]1CS(=O)(=O)c2cc(F)c(C(=O)NCCC(F)(F)F)cc2N(Cc2ccc(Cl)cc2)C1=O [Example 93, (3R)-3-amino-5-[(4-chlorophenyl)methyl]-8-fluoro-1,1,4-trioxo-N-(3,3,3-trifluoro-propyl)-2,3,4,5-tetrahydro-1λ^6,5-benzothiazepine-7-carboxamide hydrochloride] | 5.30 to 5.80 | > 5.80 | A (IL-2 production at 3 μM compound concentration >10 ng/mL)
C[C@H](NC(=O)c1cc2c(cc1F)S(=O)(=O)C[C@H](N)C(=O)N2Cc1ccc(Cl)cc1)C(F)(F)F.Cl [Example 94, (3R)-3-amino-5-[(4-chlorophenyl)methyl]-8-fluoro-1,1,4-trioxo-N-[(2S)-1,1,1-trifluoropropan-2-yl]-2,3,4,5-tetrahydro-1λ^6,5-benzothiazepine-7-carboxamide hydrochloride] | 5.30 to 5.80 | < 5.30 | C (IL-2 production at 3 μM compound concentration between 2-fold increase as compared to mean IL-2 production of stimulated cells in the absence of compounds and <2 ng/mL)
CCC(C)NC(=O)c1cc2c(cc1F)S(=O)(=O)C[C@H](N)C(=O)N2Cc1ccc(Cl)cc1.Cl (stereo partly drawn) [Example 95, (3R)-3-amino-N-(butan-2-yl)-5-[(4-chlorophenyl)methyl]-8-fluoro-1,1,4-trioxo-2,3,4,5-tetrahydro-1λ^6,5-benzothiazepine-7-carboxamide hydrochloride] | > 5.80 | 5.30 to 5.80 | B (IL-2 production at 3 μM compound concentration between 2-10 ng/mL)
CC(C)(C)NC(=O)c1cc2c(cc1F)S(=O)(=O)C[C@H](N)C(=O)N2Cc1ccc(Cl)cc1.Cl [Example 96, (3R)-3-amino-N-tert-butyl-5-[(4-chlorophenyl)methyl]-8-fluoro-1,1,4-trioxo-2,3,4,5-tetrahydro-1λ^6,5-benzothiazepine-7-carboxamide hydrochloride] | > 5.80 | > 5.80 | A (IL-2 production at 3 μM compound concentration >10 ng/mL)
Cl.N[C@H]1CS(=O)(=O)c2cc(F)c(C(=O)N[C@H]3C[C@@H]3c3ccccc3)cc2N(Cc2ccc(Cl)cc2)C1=O [Example 98, (3R)-3-amino-5-[(4-chlorophenyl)methyl]-8-fluoro-1,1,4-trioxo-N-[(1S,2R)-2-phenylcyclopropyl]-2,3,4,5-tetrahydro-1λ^6,5-benzothiazepine-7-carboxamide hydrochloride] | > 5.80 | > 5.80 | A (IL-2 production at 3 μM compound concentration >10 ng/mL)
CC1(NC(=O)c2cc3c(cc2F)S(=O)(=O)C[C@H](N)C(=O)N3Cc2ccc(Cl)cc2)CC1.Cl [Example 99, (3R)-3-amino-5-[(4-chlorophenyl)methyl]-8-fluoro-N-(1-methylcyclopropyl)-1,1,4-trioxo-2,3,4,5-tetrahydro-1λ^6,5-benzothiazepine-7-carboxamide hydrochloride] | 5.30 to 5.80 | 5.30 to 5.80 | B (IL-2 production at 3 μM compound concentration between 2-10 ng/mL)
CC1(NC(=O)c2cc3c(cc2F)S(=O)(=O)C[C@H](N)C(=O)N3Cc2ccc(Cl)cc2)CCC1.Cl [Example 100, (3R)-3-amino-5-[(4-chlorophenyl)methyl]-8-fluoro-N-(1-methylcyclobutyl)-1,1,4-trioxo-2,3,4,5-tetrahydro-1λ^6,5-benzothiazepine-7-carboxamide hydrochloride] | > 5.80 | > 5.80 | A (IL-2 production at 3 μM compound concentration >10 ng/mL)
CC1(C)CC1NC(=O)c1cc2c(cc1F)S(=O)(=O)C[C@H](N)C(=O)N2Cc1ccc(Cl)cc1.Cl (stereo partly drawn) [Example 101, (3R)-3-amino-5-[(4-chlorophenyl)methyl]-N-(2,2-dimethylcyclopropyl)-8-fluoro-1,1,4-trioxo-2,3,4,5-tetrahydro-1λ^6,5-benzothiazepine-7-carboxamide hydrochloride] | > 5.80 | 5.30 to 5.80 | B (IL-2 production at 3 μM compound concentration between 2-10 ng/mL)
Cl.N[C@H]1CS(=O)(=O)c2cc(F)c(C(=O)NC3CC(F)(F)C3)cc2N(Cc2ccc(Cl)cc2)C1=O [Example 102, (3R)-3-amino-5-[(4-chlorophenyl)methyl]-N-(3,3-difluorocyclobutyl)-8-fluoro-1,1,4-trioxo-2,3,4,5-tetrahydro-1λ^6,5-benzothiazepine-7-carboxamide hydrochloride] | > 5.80 | > 5.80 | A (IL-2 production at 3 μM compound concentration >10 ng/mL)
Cl.N[C@H]1CS(=O)(=O)c2cc(F)c(C(=O)NCc3ccccc3)cc2N(Cc2ccc(Cl)cc2)C1=O [Example 103, (3R)-3-amino-N-benzyl-5-[(4-chlorophenyl)methyl]-8-fluoro-1,1,4-trioxo-2,3,4,5-tetrahydro-1λ^6,5-benzothiazepine-7-carboxamide hydrochloride] | > 5.80 | > 5.80 | A (IL-2 production at 3 μM compound concentration >10 ng/mL)
CCCCCCCNC(=O)c1cc2c(cc1F)S(=O)(=O)C[C@H](N)C(=O)N2Cc1ccc(Cl)cc1.Cl [Example 104, (3R)-3-amino-5-[(4-chlorophenyl)methyl]-8-fluoro-N-heptyl-1,1,4-trioxo-2,3,4,5-tetrahydro-1λ^6,5-benzothiazepine-7-carboxamide hydrochloride] | > 5.80 | > 5.80 | A (IL-2 production at 3 μM compound concentration >10 ng/mL)
C[C@@H]1[C@H](N)C(=O)N(Cc2ccc(Cl)cc2)c2cc(C(=O)NC3CC3(F)F)ccc2S1(=O)=O.Cl (stereo partly drawn) [Example 108, (2R,3R)-3-amino-5-[(4-chlorophenyl)methyl]-N-(2,2-difluorocyclopropyl)-2-methyl-1,1,4-trioxo-2,3,4,5-tetrahydro-1λ^6,5-benzothiazepine-7-carboxamide hydrochloride] | < 5.30 | < 5.30 | C (IL-2 production at 3 μM compound concentration between 2-fold increase as compared to mean IL-2 production of stimulated cells in the absence of compounds and <2 ng/mL)
CCCCCCCCCCCCCCCCNC(=O)c1cc2c(cc1F)S(=O)(=O)C[C@H](N)C(=O)N2Cc1ccc(Cl)cc1.Cl [Example 109, (3R)-3-amino-5-[(4-chlorophenyl)methyl]-8-fluoro-N-hexadecyl-1,1,4-trioxo-2,3,4,5-tetrahydro-1λ^6,5-benzothiazepine-7-carboxamide hydrochloride] | > 5.80 | > 5.80 | A (IL-2 production at 3 μM compound concentration >10 ng/mL)
Cl.N[C@H]1CS(=O)(=O)c2cc(F)c(C(=O)NCC3CC3)cc2N(Cc2ccc(Cl)cc2)C1=O [Example 110, (3R)-3-amino-5-[(4-chlorophenyl)methyl]-N-(cyclopropylmethyl)-8-fluoro-1,1,4-trioxo-2,3,4,5-tetrahydro-1λ^6,5-benzothiazepine-7-carboxamide hydrochloride] | > 5.80 | > 5.80 | A (IL-2 production at 3 μM compound concentration >10 ng/mL)
C[C@@H]1[C@H](N)C(=O)N(Cc2ccc(Cl)cc2)c2cc(C(=O)NCCCC(F)(F)F)ccc2S1(=O)=O.Cl [Example 111, (2R,3R)-3-amino-5-[(4-chlorophenyl)methyl]-2-methyl-1,1,4-trioxo-N-(4,4,4-trifluorobutyl)-2,3,4,5-tetrahydro-1λ^6,5-benzothiazepine-7-carboxamide hydrochloride] | 5.30 to 5.80 | 5.30 to 5.80 | B (IL-2 production at 3 μM compound concentration between 2-10 ng/mL)
